These results are taken from article PMC5908784, “Extracellular loops 2 and 3 of the calcitonin receptor selectively modify agonist binding and efficacy” (Biochemical Pharmacology, 2018).

Assay in all cases: Homologous whole cell competition binding
Conditions in all cases: homologous competition of 125I-sCT(8-32), whole cells, mean ± S.E.M., SEM

The target of one experiment is T1, hCTR N365A (Homo sapiens, UniProt P30988, N365A).
T1 construct: c-Myc (N); expressed in transfected cells
T1 sequence (P30988 25-474 N365A): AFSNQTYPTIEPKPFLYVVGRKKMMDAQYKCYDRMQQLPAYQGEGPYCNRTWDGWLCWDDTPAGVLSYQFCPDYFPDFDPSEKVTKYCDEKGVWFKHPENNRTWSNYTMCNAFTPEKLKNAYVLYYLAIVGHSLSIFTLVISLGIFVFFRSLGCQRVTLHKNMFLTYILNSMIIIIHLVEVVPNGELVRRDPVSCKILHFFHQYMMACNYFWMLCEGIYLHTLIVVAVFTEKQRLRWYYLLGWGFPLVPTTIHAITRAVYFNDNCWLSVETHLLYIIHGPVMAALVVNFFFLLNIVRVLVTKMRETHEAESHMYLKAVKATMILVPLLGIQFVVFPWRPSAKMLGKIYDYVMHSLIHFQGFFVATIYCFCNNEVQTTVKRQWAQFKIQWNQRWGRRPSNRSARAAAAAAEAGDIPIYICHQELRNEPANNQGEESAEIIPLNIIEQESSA
How it is done:
(§1) Homologous radioligand competition was performed on 2.5 × 10^4 cells/well seeded into 96-well trays and cultured overnight. Cells were incubated overnight at 4 °C with two concentrations of ^125I-sCT(8-32) (between 25 and 100 pM; specific activity, 2000 Ci/mmol^9) and serial dilutions of non-iodinated sCT(8-32). Non-bound ligand was removed and bound ligand activity was measured using a γ counter (Wallac Wizard 1470 Gamma Counter, Perkin Elmer, 80% counter efficiency). Values were normalized against non-specific binding (0%) defined by the presence of 1 μM of unlabelled sCT(8-32), and total ligand bound in absence of competing sCT(8-32) (100%).
(§2) IC50 and Bmax values were estimated from competitive inhibition of ^125I-sCT(8-32) binding using a 3-parameter logistic equation (log(inhibitor versus response)) in Prism (v7; Graphpad). Data were corrected for radioligand occupancy using the Cheng-Prusoff equation in Prism; as such data are reported as pKi. Emax and EC50 were estimated from concentration-response curves using with a 3-parameter logistic equation in Prism (v7). These values are a composite of functional affinity, efficacy and stimulus response coupling. The Black and Leff operational model of agonism was applied to separate effects on pathway-specific efficacy (τ) from those that modify ligand functional affinity (pKA). Derived τ values were normalized to experimentally determined levels of cell surface expression to provide a measure of efficacy (τc) that is independent of affinity and altered cell surface receptor expression. pKi, pKA and log τc values for mutant receptors were statistically compared to those of the WT receptor using a one-way analysis of variance (ANOVA) and Dunnett’s post-test. Significance was accepted at P < 0.05.

The next experiment has as its target T2, hCTR D373A (Homo sapiens, UniProt P30988, D373A).
T2 construct: c-Myc (N); expressed in transfected cells
T2 sequence (P30988 25-474 D373A): T1 sequence (P30988 25-474 N365A) with A341N, D349A
As for the experimental part: as §1, §2

For a further experiment, the target named is T3, hCTR V358A (Homo sapiens, UniProt P30988, V358A).
T3 construct: c-Myc (N); expressed in transfected cells
T3 sequence (P30988 25-474 V358A): T1 sequence (P30988 25-474 N365A) with V334A, A341N
How it is done: as §1, §2

Another experiment concerns the target T4, hCTR K366A (Homo sapiens, UniProt P30988, K366A).
T4 construct: c-Myc (N); expressed in transfected cells
T4 sequence (P30988 25-474 K366A): T1 sequence (P30988 25-474 N365A) with A341N, K342A
How it is done: as §1, §2

Changes are numbered by the printed parent chain. Where no end group is shown, it is not given here.

In the case of “VLGKLSQELHKLQTYPRTNTGSGTP-NH2 [sCT(8-32)]”, the Ki on hCTR N365A is 0.234 nM; on hCTR D373A, 0.525 nM; at hCTR V358A, 0.155 nM; on hCTR K366A, 0.195 nM.
